# Laboratory results: publication PMC4580410, “Characterization of Kbot21 Reveals Novel Side Chain Interactions of Scorpion Toxins Inhibiting Voltage-Gated Potassium Channels” (PLoS ONE, 2015)
# Where a SMILES comes first, the peptide text is derived from it. Bridges are numbered along the chain shown (N, C = ends).
# Key:
# rKV1.4 = test: Two-electrode voltage-clamp, Xenopus oocytes expressing rKV1.4; format: cell-based, rat; settings: 1 μM toxin, TEVC, n ≥ 3
# Protocol: (§1) For the expression of the VGPCs (rKV1.1, rKV1.2, hKV1.3, rKV1.4, rKV1.6, Shaker IR, rKV2.1) in Xenopus oocytes, the linearized plasmids were transcribed using the T7 or SP6 mMESSAGE-mMACHINE transcription kit (Ambion, USA). The harvesting of stage V-VI oocytes from anaesthetized female Xenopus laevis frog was previously described. Oocytes were injected with 50 nl of cRNA at a concentration of 1 ng/nl using a micro-injector (Drummond Scientific, USA). The oocytes were incubated in ND96 solution containing (in mM): NaCl, 96; KCl, 2; CaCl2, 1.8; MgCl2, 2 and HEPES, 5 (pH 7.4), supplemented with 50 mg/l gentamycin sulfate. The use of the frogs was in accordance with the license number LA1210239.
# (§2) Two-electrode voltage-clamp recordings were performed at room temperature (18–22°C) using a Geneclamp 500 amplifier (Molecular Devices, USA) controlled by a pClamp data acquisition system (Axon Instruments, USA). Whole cell currents from oocytes were recorded 1–4 days after injection. Bath solution composition was ND96 (in mM): NaCl, 96; KCl, 2; CaCl2, 1.8; MgCl2, 2 and HEPES, 5 (pH 7.4). Voltage and current electrodes were filled with 3 M KCl. Resistances of both electrodes were kept between 0.7–1.5 MΩ. The elicited currents were filtered at 1 kHz and sampled at 500 Hz using a four-pole low-pass Bessel filter. Leak subtraction was performed using a-P/4 protocol. […]
# rKV1.2 = test: Two-electrode voltage-clamp, Xenopus oocytes expressing rKV1.2; format: cell-based, rat; settings: 1 μM toxin, TEVC, n ≥ 3
# Protocol: as §1, §2
# rKV2.1 = test: Two-electrode voltage-clamp, Xenopus oocytes expressing rKV2.1; format: cell-based, rat; settings: 1 μM toxin, TEVC, n ≥ 3
# Protocol: as §1, §2
# hKV1.3 = test: Two-electrode voltage-clamp, Xenopus oocytes expressing hKV1.3; format: cell-based, human; settings: 1 μM toxin, TEVC, n ≥ 3
# Protocol: as §1, §2
# rKV1.1 = test: Two-electrode voltage-clamp, Xenopus oocytes expressing rKV1.1; format: cell-based, rat; settings: 1 μM toxin, TEVC, n ≥ 3
# Protocol: as §1, §2
# rKV1.6 = target: T1, rKV1.6 (Rattus norvegicus, UniProt P17659); test: Two-electrode voltage-clamp, Xenopus oocytes expressing rKV1.6; format: cell-based
# T1 construct: expressed in transfected cells; host or cells: Xenopus laevis oocytes injected with cRNA
# Protocol: as §1
# Two-electrode voltage-clamp recordings were performed at room temperature (18–22°C) using a Geneclamp 500 amplifier (Molecular Devices, USA) controlled by a pClamp data acquisition system (Axon Instruments, USA). Whole cell currents from oocytes were recorded 1–4 days after injection. Bath solution composition was ND96 (in mM): NaCl, 96; KCl, 2; CaCl2, 1.8; MgCl2, 2 and HEPES, 5 (pH 7.4). Voltage and current electrodes were filled with 3 M KCl. Resistances of both electrodes were kept between 0.7–1.5 MΩ. The elicited currents were filtered at 1 kHz and sampled at 500 Hz using a four-pole low-pass Bessel filter. Leak subtraction was performed using a-P/4 protocol. KV1.1-KV1.6 and Shaker IR currents were evoked by 500 ms depolarizations to 0 mV followed by a 500 ms pulse to -50 mV, from a holding potential of -90 mV. In order to investigate the current-voltage relationship, current traces were evoked by 10 mV depolarization steps from a holding potential of -90 mV. All data represent at least 3 independent experiments (n ≥ 3) and are presented as mean ± standard error.
# Shaker IR = test: Two-electrode voltage-clamp, Xenopus oocytes expressing Shaker IR; format: cell-based, insect; settings: 1 μM toxin, TEVC, n ≥ 3
# Protocol: as §1, §2
# C57/ Bl/6 mice = settings: literature value for comparison; cited from earlier work
# Protocol: We injected increasing doses, from 0.8 to 25 ng, of Kbot21 to two sets of C57bL/6 mice containing each six individuals by i.c.v. The LD50 value corresponds to […] or 1μg/kg body weight which is 5 times to other LD50 values of some scorpion peptides, such as Maurotoxin, well characterized for their activity on potassium channels (LD50 = 100 ng).
# T1 sequence (P17659 whole entry): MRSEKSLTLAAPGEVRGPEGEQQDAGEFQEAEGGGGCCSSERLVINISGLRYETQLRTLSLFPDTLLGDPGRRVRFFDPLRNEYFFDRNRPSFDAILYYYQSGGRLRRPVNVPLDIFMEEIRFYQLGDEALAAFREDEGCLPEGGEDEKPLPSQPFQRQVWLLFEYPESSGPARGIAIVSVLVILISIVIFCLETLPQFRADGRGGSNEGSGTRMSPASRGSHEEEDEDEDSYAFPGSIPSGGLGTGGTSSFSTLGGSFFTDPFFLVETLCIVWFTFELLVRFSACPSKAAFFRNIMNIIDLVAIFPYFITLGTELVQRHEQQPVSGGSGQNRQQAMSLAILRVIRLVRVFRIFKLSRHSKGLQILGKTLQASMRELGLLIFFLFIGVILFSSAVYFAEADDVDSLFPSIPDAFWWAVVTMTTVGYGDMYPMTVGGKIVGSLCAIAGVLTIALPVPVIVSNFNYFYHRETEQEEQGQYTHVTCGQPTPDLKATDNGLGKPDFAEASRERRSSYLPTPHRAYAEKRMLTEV
Compound,Inhibition of potassium current (rKV1.4),Inhibition of potassium current (rKV1.2),Inhibition of potassium current (rKV2.1),Inhibition of potassium current (hKV1.3),Inhibition of potassium current (rKV1.1),"Reversibility of Kv1.6 block upon washout (rKV1.6; 500 nM toxin, current recovered quickly and completely upon washout, n = 3)","Inhibition of potassium current (rKV1.6; 1 μM toxin, Xenopus oocytes, TEVC, n ≥ 3)","V1/2 (midpoint of activation) (rKV1.6; after application of 100 nM Kbot21, control 8.5 ± 0.9 mV, n ≥ 3, mean ± standard error, SEM) [mV]","Hill coefficient (rKV1.6; concentration-response curve on Kv1.6, mean ± standard error, n ≥ 3, SEM)",Inhibition of Shaker IR current (Shaker IR) [%],LD50 (C57/ Bl/6 mice) [ng]
"CC[C@H](C)[C@@H]1NC(=O)[C@@H]2CSSC[C@H](NC(=O)[C@H](C)NC(=O)[C@H](C)N)C(=O)N[C@@H](Cc3ccc(O)cc3)C(=O)N[C@@H](CO)C(=O)N[C@@H](CO)C(=O)N[C@@H](CC(=O)O)C(=O)N[C@H]3CSSC[C@H](NC(=O)[C@H](CCCCN)NC(=O)[C@H](CO)NC(=O)[C@H](CC(=O)O)NC1=O)C(=O)N[C@@H](CCCCN)C(=O)N[C@H](C(=O)N[C@@H](Cc1ccc(O)cc1)C(=O)N[C@@H](CCCCN)C(=O)O)CSSC[C@H](NC(=O)[C@H](CCCCN)NC(=O)[C@H](C(C)C)NC(=O)[C@H](CCCNC(=N)N)NC3=O)C(=O)N[C@@H](CCCNC(=N)N)C(=O)N[C@@H](C)C(=O)N[C@@H](CCSC)C(=O)NCC(=O)N[C@@H](Cc1ccccc1)C(=O)N[C@@H](CO)C(=O)N[C@@H](CO)C(=O)NCC(=O)N[C@@H](CCCCN)C(=O)N2 [Kbot21] (H-AACYSSDCRVKCRAMGFSSGKCIDSKCKCYK-OH; disulfide 3-22, 8-27, 12-29 (inferred); N-terminus and C-terminus assumed)",failed to exert any activity,completely inhibited,failed to exert any activity,completely inhibited,completely inhibited,reversible,completely inhibited,6.9 ± 2.9,1.1 ± 0.1,65,
"Maurotoxin: scorpion peptide well characterized for activity on potassium channels (VSCTGSKDCYAPCRKQTGCPNAKCINKSCKCYGC; UniProt P80719 1-34, looked up)",,,,,,,,,,,100
